The values below come from patent US9949946B2, “Inclusion complexes of pinocembrin with cyclodextrin or its derivatives” (CSPC ZHONGQI PHARMACEUTICAL TECHNOLOGY (SHIJIAZHUANG) CO., …, priority 2008, dated 2018).

Each structure is given as a SMILES string.

Data set [1] concerns MCAO operation-injured rats. Put plainly: MCAO model, rCBF of the rat acute cerebral ischemia tissue. The data set is classed as in vivo. To be noted: 30 minutes after the cerebral ischemia, 3 mg/kg. On the procedure:
Assay Method: The assay was conducted according to the MCAO model method as reported in the literature (Zhang Juntian, Modern Experimental Methods in Pharmacology, October 1998, the First Edition, the United Press of Beijing Medical University and Peking Union Medical College).
The rCBF (regional cerebral blood flow) value in the cortex medium-sized arterial blood-supplying area reduced rapidly to 20˜30% of the pre-operation basal level because of the MCAO operation. 24 hours after ischemia (pre-decapitation), the collateral circulation compensation established and the rCBF value increased a little compared with the value during the operation, but still below 50% of the basal level.
30 minutes after the cerebral ischemia, the rCBF value of the vehicle group was 31.09±5.35% of the basal value, and the rCBF values of the administration groups, i.e., the inclusion complex DL0108 group (1 mg/kg, 3 mg/kg, 10 mg/kg) and the nimodipine group, were 40.76±6.58%, 50.09±7.09%, 53.28±8.03%, 55.58±6.09% of the basal value respectively. […] The DL0108 (3, 10 mg/kg) group and the nimodipine (3 mg/kg) group had significant differences from the vehicle group (P<0.05).

The nature of data set [2]: Determination of the solubility of pinocembrin. The data set is classed as physicochemical. To be noted: water. On the procedure: Through using cyclodextrin or its derivative to include pinocembrin and make pinocembrin molecules entrap in the tubular structure of cyclodextrin or its derivative, and therefore obtain the inclusion complex of pinocembrin with cyclodextrin or its derivative, the water-solubility of pinocembrin is enhanced greatly. […] The specific results are shown in Example 10.
In order to screen solubilizer, cosolvent and non-aqueous solvent useful for injection, a series of experiments were conducted with their general dosages respectively to determine the solubilization effect of pinocembrin.
The solubilities in Table 1 are the solubilities of pinocembrin.

As for `COCCOC(=O)C1=C(C)NC(C)=C(C(=O)OC(C)C)C1c1cccc([N+](=O)[O-])c1` (centres unmarked) [nimodipine], the rCBF value in data set [1] is on record as 55.58±6.09 % of the basal value.

One may read the solubility as the concentration that dissolves in the medium under given conditions. A low value points to a poorly soluble substance. In data set [2], `O=C1CC(c2ccccc2)Oc2cc(O)cc(O)c21` (centres unmarked) [pinocembrin, 2,3-Dihydro-5,7-dihydroxy-2-phenyl-4H-1-benzopyran-4-one] came in with a solubility of less than 200 µg/mL.
